Test [1] deals with alpha1-adrenergic. Put plainly: Amyelated rats, alpha1-adrenergic component (C20 ratio with prazosin). Format: in vivo, Sprague Dawley rats. Particulars: pretreated with prazosin. An excerpt: (§1) Male Sprague Dawley rats (300-400 g) are anesthetized with ether. The trachea is cannulated, the spinal column is destroyed using a stainless-steel rod and the animal is 1. 5 immediately placed under artificial respiration. The vagus nerves are dissected. The carotid arteries are ligatured and a catheter is placed in one and serves to record the arterial pressure. Three other catheters are placed in the jugular veins and in the vein of the penis and serve for the injections. The temperature of the animals is maintained at 36° C. The animal is pretreated by an injection of tertatolol […]. The animal is also pretreated 10 minutes later with prazosin ([…]) or yohimbine (1 mg/kg) when it is desired to determine the alpha1 - or alpha2-adrenergic properties of the product. Ten minutes later, increasing cumulative doses of product are injected every 20 seconds. The variations in arterial pressure are detected using a Statham P23XL pressure cell and are recorded. The pressure values are expressed in mmHg. This experiment makes it possible to calculate the concentration which increases the pressure by 20 mmHg (C20) by non-linear regression according to the mass action law model of Michaelis and Menten as described above. The maximum effect obtained is subsequently convened to a percentage relative to the maximum effect induced by phenylephrine. The alpha1 - or alpha2-adrenergic components of the product are evaluated using the C20 ratio obtained in the presence of prazosin or yohimbine on the values obtained in the absence of these antagonists. In amyelated rats, the products of the invention produce hypertensions which are sensitive to prazosin and to yohimbine.

The subject of test [2] is alpha2-adrenergic. Put plainly: Amyelated rats, alpha2-adrenergic component (C20 ratio with yohimbine). Type of test: in vivo, Sprague Dawley rats. Particulars: pretreated with yohimbine (1 mg/kg).
From the text: as §1

The test system of test [3] is arterial pressure in amyelated rats. As to the kind of experiment: In vivo study in amyelated rats, arterial pressure. Also on record: species or system Sprague Dawley rats. Particulars: Rattus norvegicus, iv, tertatolol pretreated, no prazosin or yohimbine, read-out: C20 Control (concentration which increases the pressure by 20 mmHg).
From the text: as §1

Test [4] has as its system dog femoral arteries. Put plainly: Contraction of isolated dog femoral arteries. Particulars: Canis lupus familiaris; for EC50: dog femoral artery rings, cumulative doses; for Emax: maximum contraction relative to 100 mM KCl, dog femoral artery, read-out: ARTERY Max. How it is done:
(§2) The technique used is based on that described by Fowler et al. (J. Pharmacol. Exp. Ther., 229, 712-718, 1984). Male or female mongrel dogs of approximately 15-25 kg were used as organ sources. The animals are anesthetized with pentobarbital (30 mg/kg intravenously). The legs are incized and the blood vessels removed. They are placed in Krebs-Ringer liquid (118 mM NaCl; 25 mM NaHCO3; 10 mM Glucose; 4.7 mM KCl; 1.25 mM CaCl2; 1.19 mM MgSO4; 1.14 mM KH2 PO4) at room temperature and under a sparge of carbogen (95% O2, 5% CO2). These blood vessels are then carefully freed of their fat and then cut into rings 2 mm wide and mounted under a base tension of 4 g (femoral arteries) or 1 g (saphena veins) in tanks thermostated at 37° C. containing Krebs-Ringer liquid and constantly sparged with carbogen. A lower hook constitutes the fixed point, whereas the upper hook is connected to an isometric force sensor. The variations in tension are digitized, stored on disk and processed by an information technology system. After mounting, the organs are left to rest for 90 minutes, with rinses being carried out every 30 min. After readjustment of the base tension, a contraction is induced by a single dose of KCl (100 mM). After stabilization, washing and returning to the base line, a contraction is provoqued by a single dose of phenylephrine (submaximal concentration) in order to regulate the following contractions. After washing and returning to the baseline, an effect/concentration curve is produced by addition of cumulative doses of agonist (the space between the doses is a semi-log). This experiment makes it possible to calculate the 50% effective concentration (EC50) in the following way: the tension values are first of all converted to percentages relative to the maximum effect induced by 100 mM of KCl. This EC50 is determined by non-linear regression by the SIMPLEX method (M. S. Caceci, Byte, 340-362, 1984), calculated according to the mass action law model of L. Michaelis and M. L. Menten (Biochem. Zeitschrift, 49, 333-369, 1913).
(§3) E=(Emax*C^n)(EC^n +C^n) with E=effect; Emax=maximum effect; C=concentration; EC=EC50; n=Hill number
(§4) The products of the invention contract dog arteries and veins. The maximum for these contractions approaches that obtained with KCl.

Test [5] relates to saphena veins. As to the kind of experiment: Contraction of isolated dog saphena veins. Particulars: Canis lupus familiaris; for EC50: dog saphena vein rings, cumulative doses; for Emax: maximum contraction relative to 100 mM KCl, dog saphena vein, read-out: VEIN Max. The method, then: as §2, §3, §4

As usually defined, the EC50 is the midpoint of the concentration-response curve. Read a high EC50 as weaker potency. Take `Clc1cccc2c1CC1(CC2)CNC=N1` (single isomer, unassigned) [Example 6, Spiro[(1,3-diazacyclopent-1-ene)-5:2'-(8'-chloro-1',2',3', 4'-tetrahydronaphthalene)]L-(+)-tartrate, αisomer]: the “Ratio treated C20 / control C20, Prazosin” value in test [1] came to 1.7. For the same compound, the “Ratio treated C20 / control C20, Yohimbine” value in test [2] is recorded as 4.0. Also, the ED (20 mmHg) in test [3] was found to be 0.1 µg/kg. In test [4], the 50% effective concentration (EC50) was found to be 2 µM and the Emax was determined as 91%. For the same compound, in test [5], it took 7 µM to reach a half-maximal effect (EC50) and the Emax was 96%.
In the case of `Clc1cccc2c1CC1(CC2)CNC=N1` (centres unmarked) [Example 1, Spiro[(1,3-diazacyciopent-1-ene)-5:2'-(8'-chloro-1', 2',3',4'-tetrahydronaphthalene)]fumarate], the “Ratio treated C20 / control C20, Prazosin” value in test [1] came to 1.9. In test [2], the “Ratio treated C20 / control C20, Yohimbine” value is recorded as 6.0. For the same compound, the ED (20 mmHg) in test [3] is 0.2 µg/kg. In test [4], the midpoint of the response, the EC50, lay at 1 µM and the Emax was 94%. Besides, in test [5], the concentration for a half-maximal effect (EC50) was determined as 0.2 µM and the Emax was 95%.
On to `Oc1cccc2c1CC1(CC2)CNC=N1` (centres unmarked) [Example 5, Spiro[(1,3-diazacyclopent-1-ene)-5:2'-(8'-hydroxy-1',2',3', 4'-tetrahydronaphthalene)]fumarate], for which the “Ratio treated C20 / control C20, Prazosin” value in test [1] is reported as 0.9. Moreover, the “Ratio treated C20 / control C20, Yohimbine” value in test [2] was 12.0. The ED (20 mmHg) in test [3] came out at 4.8 µg/kg.

The values above are taken from patent publication US5486532A, “Benzospiroalkenes” (Adir et Compagnie, priority 1993, dated 1996).
